# Patent US9260439B2, “Dihydropyrrolopyrimidine derivatives” (PFIZER INC., priority 2014, dated 2016)
# Molecular target: truncated PI3Kα (p110α/iSH2 p85α) (Homo sapiens (Human), UniProt P42336)
# Experiment: PI3KA_Act fluorescence polarization kinase assay (Ki)
# Format: biochemical
# Details: 1 mM ATP
# In short: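 p110α/iSH2 p85α (0.5 nM) was reacted with 30 μM sonicated PIP2 in 50 mM HEPES pH 7.4, 150 mM NaCl, 5 mM MgCl2, 1 mM DTT and 0.05% CHAPS for 30 min at room temperature, then stopped with EDTA. PIP3 was detected by fluorescence polarization (GST-Grp1 PH domain/TAMRA-PIP3), and Ki came from a Morrison tight-binding fit.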
# Chain of truncated PI3Kα (p110α/iSH2 p85α) (P42336 whole entry, the tested form may be a part): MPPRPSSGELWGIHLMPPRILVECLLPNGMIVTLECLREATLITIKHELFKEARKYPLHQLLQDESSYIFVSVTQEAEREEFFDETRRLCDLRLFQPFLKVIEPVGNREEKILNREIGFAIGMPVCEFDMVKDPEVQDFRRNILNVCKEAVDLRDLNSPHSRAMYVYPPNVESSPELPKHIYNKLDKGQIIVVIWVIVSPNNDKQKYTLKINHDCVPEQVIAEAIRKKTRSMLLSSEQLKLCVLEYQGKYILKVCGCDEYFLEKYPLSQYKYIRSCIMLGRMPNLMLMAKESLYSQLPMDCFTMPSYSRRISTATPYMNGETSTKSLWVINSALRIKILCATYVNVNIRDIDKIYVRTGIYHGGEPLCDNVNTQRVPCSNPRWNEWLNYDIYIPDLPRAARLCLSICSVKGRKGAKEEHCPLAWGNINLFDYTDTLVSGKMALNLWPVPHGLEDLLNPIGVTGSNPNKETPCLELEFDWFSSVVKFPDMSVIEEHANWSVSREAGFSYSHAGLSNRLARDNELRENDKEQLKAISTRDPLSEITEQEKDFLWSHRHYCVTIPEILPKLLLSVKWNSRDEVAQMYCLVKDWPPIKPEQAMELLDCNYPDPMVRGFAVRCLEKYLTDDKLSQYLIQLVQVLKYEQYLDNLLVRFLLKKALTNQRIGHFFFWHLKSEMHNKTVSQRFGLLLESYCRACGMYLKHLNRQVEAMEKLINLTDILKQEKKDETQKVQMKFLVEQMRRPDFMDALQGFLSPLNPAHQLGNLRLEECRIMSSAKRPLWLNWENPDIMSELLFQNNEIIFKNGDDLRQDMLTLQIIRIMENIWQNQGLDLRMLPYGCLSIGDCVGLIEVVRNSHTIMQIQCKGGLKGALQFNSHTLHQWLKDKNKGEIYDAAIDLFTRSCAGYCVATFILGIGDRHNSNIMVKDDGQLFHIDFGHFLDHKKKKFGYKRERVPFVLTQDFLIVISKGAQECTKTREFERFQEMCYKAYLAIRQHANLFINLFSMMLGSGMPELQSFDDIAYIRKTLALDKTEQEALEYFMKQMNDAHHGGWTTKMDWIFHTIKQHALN
SMILES,PI3KA_Act Ki,Ki
CNS(=O)(=O)N1CC(C)(N2CCc3c(-c4cnc(N)nc4)nc(N4CCOC[C@@H]4C)nc32)C1 [Example 220],0.053 nM,
COCCC(=O)N1CC(N2CCc3c(-c4cnc(N)nc4)nc(N4CCOCC4)nc32)C1 [Example 221],1.291 nM,
C[C@H]1COCCN1c1nc(-c2cnc(N)nc2)c2c(n1)N(C1CN(S(=O)(=O)C3CNC3)C1)CC2 [Example 222],0.101 nM,
CC(=O)N1CC(S(=O)(=O)N2CC(N3CCc4c(-c5cnc(N)nc5)nc(N5CCOC[C@@H]5C)nc43)C2)C1 [Example 223],0.393 nM,
CC(C)S(=O)(=O)N1CC(N2CCc3c(-c4cnc(N)nc4)nc(N4CCOC[C@H]4C)nc32)C1 [Example 224],2.296 nM,
C[C@@H]1COCCN1c1nc(-c2cnc(N)nc2)c2c(n1)N([C@@]1(C)CCNC1)CC2 [Example 225],4.151 nM,
C[C@@H]1COCCN1c1nc(-c2cnc(N)nc2)c2c(n1)N([C@]1(C)CCNC1)CC2 [Example 226],7.437 nM,
C[C@@H]1COCCN1c1nc(-c2cnc(N)nc2)c2c(n1)N(C1(C)CCN(C(=O)OC(C)(C)C)C1)CC2 (stereo partly drawn) [Example 228],0.164 nM,
C[C@@H]1COCCN1c1nc(-c2cnc(N)nc2)c2c(n1)N([C@@]1(C)CCN(C(=O)OC(C)(C)C)C1)CC2 [Example 229],0.055 nM,
C[C@@H]1COCCN1c1nc(-c2cnc(N)nc2)c2c(n1)N([C@]1(C)CCN(C(=O)OC(C)(C)C)C1)CC2 [Example 230],6.996 nM,
C[C@@H]1COCCN1c1nc(-c2cnc(N)nc2)c2c(n1)N([C@@]1(C)CCN(S(C)(=O)=O)C1)CC2 [Example 231],1.493 nM,
C[C@@H]1COCCN1c1nc(-c2cnc(N)nc2)c2c(n1)N([C@]1(C)CCN(S(C)(=O)=O)C1)CC2 [Example 232],4.263 nM,
[2H]C1([2H])CN(c2nc(-c3cnc(N)nc3)c3c(n2)N([C@@]2(C)CCN(C(=O)C(C)(C)N)C2)CC3)CC([2H])([2H])O1 [Example 233],,< 0.018 nM
[2H]C1([2H])CN(c2nc(-c3cnc(N)nc3)c3c(n2)N([C@@]2(C)CCN(C(=O)C(C)(C)NC(=O)OC(C)(C)C)C2)CC3)CC([2H])([2H])O1 [Example 234],,0.509 nM
[2H]C1([2H])OC([2H])([2H])C([2H])([2H])N(c2nc(-c3cnc(N)nc3)c3c(n2)N([C@@]2(C)CCN(C(=O)C(C)(C)NC(=O)OC(C)(C)C)C2)CC3)C1([2H])[2H] [Example 235],,0.693 nM
[2H]C1([2H])OC([2H])([2H])C([2H])([2H])N(c2nc(-c3cnc(N)nc3)c3c(n2)N([C@@]2(C)CCN(C(=O)C4(C)CC4)C2)CC3)C1([2H])[2H] [Example 236],,< 0.018 nM
[2H]C1([2H])CN(c2nc(-c3cnc(N)nc3)c3c(n2)N([C@@]2(C)CCN(C(=O)C4(C)CC4)C2)CC3)CC([2H])([2H])O1 [Example 237],,0.025 nM
[2H]C1([2H])OC([2H])([2H])C([2H])([2H])N(c2nc(-c3cnc(N)nc3)c3c(n2)N([C@@]2(C)CCN(C(=O)OC(C)(C)C)C2)CC3)C1([2H])[2H] [Example 238],,< 0.018 nM

SMILES,PI3KA_Act Ki,Ki
[2H]C1([2H])CN(c2nc(-c3cnc(N)nc3)c3c(n2)N([C@@]2(C)CCN(C(=O)OC(C)(C)C)C2)CC3)CC([2H])([2H])O1 [Example 239],,< 0.018 nM
"CC(=O)N1CC(C)(N2CCc3c(-c4cnc(N)nc4)nc(N4CCOCC4)nc32)C1 [Example 240, 1-{3-[4-(2-aminopyrimidin-5-yl)-2-(morpholin-4-yl)-5,6-dihydro-7H-pyrrolo[2,3-d]pyrimidin-7-yl]-3-methylazetidin-1-yl}ethanone]",0.093 nM,
"CC(C)(O)C(=O)N1CC(N2CCc3c(-c4cnc(N)nc4)nc(N4CCOCC4)nc32)C1 [Example 241, 1-{3-[4-(2-aminopyrimidin-5-yl)-2-(morpholin-4-yl)-5,6-dihydro-7H-pyrrolo[2,3-d]pyrimidin-7-yl]azetidin-1-yl}-2-hydroxy-2-methylpropan-1-one]",1.174 nM,
"CC(C)(O)C(=O)N1CC(C)(N2CCc3c(-c4cnc(N)nc4)nc(N4CCOCC4)nc32)C1 [Example 242, 1-{3-[4-(2-aminopyrimidin-5-yl)-2-(morpholin-4-yl)-5,6-dihydro-7H-pyrrolo[2,3-d]pyrimidin-7-yl]-3-methylazetidin-1-yl}-2-hydroxy-2-methylpropan-1-one]",0.158 nM,
"CC(C)(N)C(=O)N1CC(C)(N2CCc3c(-c4cnc(N)nc4)nc(N4CCOCC4)nc32)C1 [Example 243, 2-amino-1-{3-[4-(2-aminopyrimidin-5-yl)-2-(morpholin-4-yl)-5,6-dihydro-7H-pyrrolo[2,3-d]pyrimidin-7-yl]-3-methylazetidin-1-yl}-2-methylpropan-1-one]",0.165 nM,
"CCC(=O)NCC(=O)N1CC(N2CCc3c(-c4cnc(N)nc4)nc(N4CCOCC4)nc32)C1 [Example 244, N-(2-{3-[4-(2-aminopyrimidin-5-yl)-2-(morpholin-4-yl)-5,6-dihydro-7H-pyrrolo[2,3-d]pyrimidin-7-yl]azetidin-1-yl}-2-oxoethyl)propanamide]",0.598 nM,
"CC1(C(=O)N2CC(N3CCc4c(-c5cnc(N)nc5)nc(N5CCOCC5)nc43)C2)CC1 [Example 245, {3-[4-(2-aminopyrimidin-5-yl)-2-(morpholin-4-yl)-5,6-dihydro-7H-pyrrolo[2,3-d]pyrimidin-7-yl]azetidin-1-yl}(1-methylcyclopropyl) methanone]",4.212 nM,
"CC1(C(=O)N2CC(C)(N3CCc4c(-c5cnc(N)nc5)nc(N5CCOCC5)nc43)C2)CC1 [Example 246, {3-[4-(2-aminopyrimidin-5-yl)-2-(morpholin-4-yl)-5,6-dihydro-7H-pyrrolo[2,3-d]pyrimidin-7-yl]-3-methylazetidin-1-yl}(1-methylcyclopropyl) methanone]",0.060 nM,
"COC(=O)N1CC(C)(N2CCc3c(-c4cnc(N)nc4)nc(N4CCOCC4)nc32)C1 [Example 247, methyl 3-[4-(2-aminopyrimidin-5-yl)-2-(morpholin-4-yl)-5,6-dihydro-7H-pyrrolo[2,3-d]pyrimidin-7-yl]-3-methylazetidine-1-carboxylate]",0.055 nM,
"CC(C)(C)OC(=O)N1CC(N2CCc3c(-c4cnc(N)nc4)nc(N4CCOCC4)nc32)C1 [Example 248, tert-butyl 3-[4-(2-aminopyrimidin-5-yl)-2-(morpholin-4-yl)-5,6-dihydro-7H-pyrrolo[2,3-d]pyrimidin-7-yl]azetidine-1-carboxylate]",0.212 nM,
"CC(C)(C)OC(=O)N1CC(C)(N2CCc3c(-c4cnc(N)nc4)nc(N4CCOCC4)nc32)C1 [Example 249, tert-butyl 3-[4-(2-aminopyrimidin-5-yl)-2-(morpholin-4-yl)-5,6-dihydro-7H-pyrrolo[2,3-d]pyrimidin-7-yl]-3-methylazetidine-1-carboxylate]",0.019 nM,
"CNC(=O)N1CC(C)(N2CCc3c(-c4cnc(N)nc4)nc(N4CCOCC4)nc32)C1 [Example 250, 3-[4-(2-aminopyrimidin-5-yl)-2-(morpholin-4-yl)-5,6-dihydro-7H-pyrrolo[2,3-d]pyrimidin-7-yl]-N,3-dimethylazetidine-1-carboxamide]",0.120 nM,
"Nc1ncc(-c2nc(N3CCOCC3)nc3c2CCN3C2CN(S(=O)(=O)C3CCC3)C2)cn1 [Example 251, 5-{7-[1-(cyclobutylsulfonyl)azetidin-3-yl]-2-(morpholin-4-yl)-6,7-dihydro-5H-pyrrolo[2,3-d]pyrimidin-4-yl}pyrimidin-2-amine]",1.652 nM,
"Nc1ncc(-c2nc(N3CCOCC3)nc3c2CCN3C2CN(S(=O)(=O)N3CCC3)C2)cn1 [Example 252, 5-{7-[1-(azetidin-1-ylsulfonyl)azetidin-3-yl]-2-(morpholin-4-yl)-6,7-dihydro-5H-pyrrolo[2,3-d]pyrimidin-4-yl}pyrimidin-2-amine]",0.158 nM,
"C[C@]1(N2CCc3c(-c4cnc(N)nc4)nc(N4CCOCC4)nc32)CCNC1.Cl [Example 253, 5-{7-[(3S)-3-methylpyrrolidin-3-yl]-2-(morpholin-4-yl)-6,7-dihydro-5H-pyrrolo[2,3-d]pyrimidin-4-yl}pyrimidin-2-amine hydrochloride]",0.160 nM,
"Cl.Nc1ncc(-c2nc(N3CCOCC3)nc3c2CCN3[C@@H]2CNC[C@@H]2F)cn1 [Example 254, 5-{7-[(3R,4S)-4-fluoropyrrolidin-3-yl]-2-(morpholin-4-yl)-6,7-dihydro-5H-pyrrolo[2,3-d]pyrimidin-4-yl}pyrimidin-2-amine hydrochloride]",1.893 nM,
"Cl.Nc1ncc(-c2nc(N3CCOCC3)nc3c2CCN3[C@H]2CNC[C@H]2F)cn1 [Example 255, 5-{7-[(3S,4R)-4-fluoropyrrolidin-3-yl]-2-(morpholin-4-yl)-6,7-dihydro-5H-pyrrolo[2,3-d]pyrimidin-4-yl}pyrimidin-2-amine hydrochloride]",1.168 nM,
"CC[C@@]1(N2CCc3c(-c4cnc(N)nc4)nc(N4CCOCC4)nc32)CCNC1.Cl [Example 256, 5-{7-[(3R)-3-ethylpyrrolidin-3-yl]-2-(morpholin-4-yl)-6,7-dihydro-5H-pyrrolo[2,3-d]pyrimidin-4-yl}pyrimidin-2-amine hydrochloride]",1.131 nM,
